Laboratory results taken from patent publication US6790644B2, “1,3-dicarbonyl-dioxygenase—a new c-c-bond cleaving enzyme” (Biocatalytics, Inc., priority 2001, dated 2004).

target: T1, 1,3-dicarbonyl-dioxygenase (Acinetobacter johnsonii, UniProt Q8GNT2); test: not given; format: biochemical; conditions: not given
T1 sequence (Q8GNT2 whole entry): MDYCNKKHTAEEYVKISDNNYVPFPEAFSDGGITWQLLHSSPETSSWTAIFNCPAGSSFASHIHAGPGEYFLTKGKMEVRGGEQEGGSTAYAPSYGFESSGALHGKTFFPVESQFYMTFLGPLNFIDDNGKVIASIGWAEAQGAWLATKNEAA

Compound	Relative activity [%] 2 min (reactivation)	Relative activity [%] 10 min (reactivation)	restoration of enzyme-activity (in words)
[Cl][Ni][Cl] [NiCl2]	0%	0%	
CoCl2	0%	0%	
O=S(=O)([O-])[O-].[Zn+2] [ZnSO4]	0%	0%	
O=S(=O)([O-])[O-].[Fe+2] [FeSO4]	14%	33%	partially restores the enzyme-activity
[Cl][Fe]([Cl])[Cl] [FeCl3]	0%	0%	
[Cl][Cu][Cl] [CuCl2]	0%	0%	

target: T1, 1,3-dicarbonyl-dioxygenase; test: not given; format: biochemical; conditions: not given; remark: another data set of the same source
Description: The freshly prepared solutions of the respecitive inhibitors in buffer were added to partially purified enzyme, which then was incubated at room temperature.
The freshly prepared solutions of the respective inhibitors in buffer were added to partially purified enzyme, which then was incubated at room temperature. […] For reactivation, purified enzyme, which had previously been inactivated by incubation with o-phenantroline (1 mM), was incubated with Tris-buffer (20 mM, pH 7.5) containing the respective metal-salts (5 mM).

Compound	Relative activity [%] 2 min	Relative activity [%] 10 min	inactivation of the enzyme (in words)
O=C(O)CN(CCN(CC(=O)O)CC(=O)O)CC(=O)O [EDTA]	85%	36%	
OO [H2O2]	0%	0%	complete inactivation
c1cnc2c(c1)ccc1cccnc12 [o-Phenantroline]	38%	10%	

same assay, conditions: inhibitor 2.5 mM, 2 min incubation, 0.5 mM acetylacetone, pH 7.5

Compound	Relative activity [%] 2 min
CCOC(=O)OC(=O)OCC [Diethyl-pyrocarbonate]	18%
O=C(O)c1cc(SSc2ccc([N+](=O)[O-])c(C(=O)O)c2)ccc1[N+](=O)[O-] [DTNB, ‘5’-Dithio-bis-(2-dinitrobenzoic acid)]	88%
CCN=C=NCCCN(C)C [EDAC, 1-Ethyl-3-(3-dimethylaminopropyl)-carbodimide]	100%
O=C1CCC(=O)O1 [Succinic anhydride]	62%

same assay, conditions: inhibitor 2.5 mM, 10 min incubation, 0.5 mM acetylacetone, pH 7.5

Compound	Relative activity [%] 10 min
CCOC(=O)OC(=O)OCC [Diethyl-pyrocarbonate]	12%
O=C(O)c1cc(SSc2ccc([N+](=O)[O-])c(C(=O)O)c2)ccc1[N+](=O)[O-] [DTNB, ‘5’-Dithio-bis-(2-dinitrobenzoic acid)]	85%
CCN=C=NCCCN(C)C [EDAC, 1-Ethyl-3-(3-dimethylaminopropyl)-carbodimide]	95%
O=C1CCC(=O)O1 [Succinic anhydride]	23%

same assay, conditions: pH 7.5

Compound	Relative activity [%] 2 min	Relative activity [%] 10 min
[N-]=[N+]=[N-].[Na+] [NaN3]	54%	38%
O=C(O)CI [Iodo-acetic-acid]	100%	72%
O=C(O)c1cc[c]([Hg][OH])cc1 [p-Hydroxymercurybenzoic acid]	56%	45%

target: T1, 1,3-dicarbonyl-dioxygenase; test: Determination of enzyme-activity and stability versus pH and additives; format: physicochemical; conditions: glycerol 10%, glucose 12.5%, ascorbate 1 mM, bovine serum albumin 1-20 mg/mL, dithiothreitol 1 mM, mercaptoethanol 1 mM
Description: Activity measurements were performed with the oxygen-electrode, with KH2PO4-buffers adjusted to various pH-values [5.0-9.0]. For stability measurements, the enzyme was diluted ten-fold and incubated at various pH-values [5.0-9.0]. The activity was measured periodically with the UV-activity-assay.

Compound	effect of potential stabilizing agent on enzyme stability
bovine serum albumin: potential stabilizing agent added to the enzyme	did not enhance stability
